Results on three compounds are retold here after patent US12173320B2, “Production of red blood cells and platelets from stem cells” (BOSTON MEDICAL CENTER CORPORATION, priority 2012, dated 2024).

Holding throughout (assay type): cell-based, human
For data set [1], the system named is AhR (CYP1B1 target gene expression) in iPSCs. In words: Quantitative RT-PCR of AhR target gene CYP1B1 in iPSCs. Here is the method: RNA was extracted using the RNeasy kit (Qiagen) according to the manufacturer's instructions and DNase treated using the DNA-free kit (Ambion AM1906). Reverse transcription into cDNA was performed using the High Capacity cDNA Reverse Transcription Kit (Applied Biosystems 4368814). Quantitative (real time) PCR amplification of cDNA was performed using Taqman probes for AHR (Hs00169233 ml), CYP1B1 (Hs002382916 sl), HBA (Hs00361191 gl), HBB (Hs00758889 sl), HBG (Hs01629437 sl), vWF (Hs00169795 ml), PF4 (Hs00427220 gl), NF-E2 (Hs00232351 ml) and CD62P (Hs00927900 ml) and run on the Applied Biosystems StepOne machine. […]
To characterize AhR expression and functionality in both undifferentiated iPSCs and directly differentiated MEPs, AhR protein levels were determined via Western blot in these populations. AhR receptor was robustly expressed in day 30 and day 60 MEPs (FIG. 4A). However, AhR protein was not detected by western blotting in iPSC populations, and we postulated that AhR was expressed at extremely low levels in iPSCs, i.e., below the level of detectability with the antibodies used for Western blots. To test this hypothesis, the ability of FICZ to induce a prototypic AhR-target gene, CYPIB1, in iPSCs or, as a positive control, MEPs was assessed by quantitative RT-PCR.

Data set [2] relates to AhR (CYP1B1 target gene expression) in MEPs. The data set can be described thus: Quantitative RT-PCR of AhR target gene CYP1B1 in MEPs. The protocol: (§1) 6-formylindolo[3,2-b]carbazole (FICZ), an AHR small molecule agonist, and CH223191, an AHR competitive inhibitor were used for these assays. CH223191 was added to mesoderm cultures at Day 6 at 5 μM (lx) and 2.504 (0.5×). 0.2 μM FICZ was added to cultures at Day 7 and media was added daily. DMSO was used as a vehicle control.
RNA was extracted using the RNeasy kit (Qiagen) according to the manufacturer's instructions and DNase treated using the DNA-free kit (Ambion AM1906). Reverse transcription into cDNA was performed using the High Capacity cDNA Reverse Transcription Kit (Applied Biosystems 4368814). Quantitative (real time) PCR amplification of cDNA was performed using Taqman probes for AHR (Hs00169233 ml), CYP1B1 (Hs002382916 sl), HBA (Hs00361191 gl), HBB (Hs00758889 sl), HBG (Hs01629437 sl), vWF (Hs00169795 ml), PF4 (Hs00427220 gl), NF-E2 (Hs00232351 ml) and CD62P (Hs00927900 ml) and run on the Applied Biosystems StepOne machine. Relative gene expression was normalized to B-actin (Hs99999903 ml).
To characterize AhR expression and functionality in both undifferentiated iPSCs and directly differentiated MEPs, AhR protein levels were determined via Western blot in these populations. […] To test this hypothesis, the ability of FICZ to induce a prototypic AhR-target gene, CYPIB1, in iPSCs or, as a positive control, MEPs was assessed by quantitative RT-PCR.

The test system of data set [3] is iPSC-derived MEPs. In words: Live versus dead cell FACS (propidium iodide vs. Hoechst) of MEPs. The note with it: pre-treated for 24 hours with 5 μM CH223191 before FICZ. Here is the method: as §1
(§2) Roughly 10^5 cells were collected, spun, and re-suspended in 0.5% BSA in PBS. Samples were incubated for 30 min at ambient temperature with human antibodies including CD41a-FITC (BD 555466), CD235-PE (BD 555570), CD71-FITC (BD 555536), washed and spun at 3300 rpm for 7 min, and re-suspended in 0.5% BSA in PBS with 1 ug/ml Propidium Iodide. Samples were run on a BD FACScalibur using Cellquest Pro software and analyzed via FloJo 8.7. For ploidy analysis, cells were treated with 1.5% NP-40 (Boston Bioproducts P-872) and 62.5 ug/ml Propidium Iodide in PBS immediately before FACScalibur interrogation. For murine bone marrow, samples were first incubated for 5 min at ambient temperature with murine conjugated antibody CD16/32 (BD 553142) before a 30 min incubation with c-Kit-PE (BD 553355), CD41a-FITC (BD 553848), Ter119-PE (BD 553673). For cell viability assays, 2-3×10 ^5 cells were collected, re-suspended in 8.8 ug/ml Hoecsht 33342 in PBS supplemented with 5% FBS. Samples were then incubated in the dark at 37° C. for 15 min, washed, and re-suspended in 1 ug/ml Propidium Iodide in 5% FBS. Samples were run on an LSR-II machine with FACSDiva software and analyzed via FloJo 8.7.
In order to determine whether FICZ-mediated transactivation of the AhR receptor was responsible for the exponential expansion of iPSC-derived MEPs, the previously described Hoecsht/Propidium Iodide apoptosis assay was performed using the known AhR inhibitor CH223191. As previously shown in FIG. 3, fewer cells stained with propidium iodide after FICZ treatment (e.g., 15.5% vs. 8.09%) (FIG. 5E). […] The efficacy of the CH223191 was confirmed by its ability to block CY1^31B1 induction as assayed by qRT-PCR (FIG. 5F).

In data set [4] the test system is iPSC-derived MEPs. The data set can be described thus: Growth / expansion of MEP cultures (manual counts, trypan blue exclusion). The protocol: Plots were gated first in FSC vs. SSC and then from that population for PI ‘ and PE Hoechst’. […] (B) Representative phase contrast images of MEP population+FICZ. (C) Growth curve of day 15 MEPs+/−[…] FICZ. Cells were counted manually using trypan blue exclusion. Graphical data and the associated statistics are the result of three independent experiments per group.
High passage iPSCs were plated onto matrigel coated 6-well plates in iPSC media conditioned on iMEFs for 24 hours and supplemented with 2 ng/ml Rho Kinase Inhibitor and 20 ng/ml bFGF. After two days, iPSC media was replaced with Mesoderm DO-1 media: RPMI (Invitrogen A1049101) supplemented with 5 ng/mlhBMP-4 (R&D 314-BP-010), 50 ng/ml hVEGF (R&D 293-VE-010), 25 ng/mlhWnt3a (R&D 287-TC-500) and 10% KOSR. At Day 2, Mesoderm DO-1 media was replaced with Mesoderm D2 media: RPMI supplemented with 5 ng/ml hBMP-4, 50 ng/mlhVEGF, 20 ng/ml bFGF and 10% KOSR. Mesoderm D3 media consisted of the following: StemPro 34 (Invitrogen 10639011), 5 ng/ml hBMP-4, 50 ng/mlhVEGF, and 20 ng/ml bFGF. Mesoderm media for days 4 and 5 consisted of: StemPro 34, 15 ng/mlhVEGF, and 5 ng/ml bFGF. Day 6 mesoderm media: 74% IMDM (Invitrogen 12330061), 24% Hams F12 (Mediatech 10-080-CV), 1% B27 supplement (Invitrogen 12587-010), 0.5% N2-supplement (Invitrogen 17502-048), 0.5% BSA (Sigma A3059), 50 ng/ml hVEGF, 100 ng/mlbFGF, 100 ng/ml hSCF (R&D 255-SC-010), 25 ng/ml hFlt3 Ligand (R&D 308-FKN-005). Day 7 media: 74% IMDM, 24% Hams F12, 1% B27 supplement, 0.5% N2-supplement, 0.5% BSA, 50 ng/ml hVEGF, 100 ng/ml bFGF, 100 ng/ml hSCF, 25 ng/ml hFlt3 Ligand, 50 ng/ml hTPO (Genentech G140BT), 10 ng/ml IL-6 (R&D 206-IL-010), 0.5 U/ml hEPOgen and 0.2 uM 6-formylindolo[3,2-b]carbazole (FICZ) (Santa Cruz SC300019). After Day 7, 0.5 ml of Day 7 media was added to the culture daily without aspirating the media from the previous day. All base media mixes included 2 mM L-Glutamine (Invitrogen 25030081), 4×10^-4M Monothioglycerol (Sigma M1753), 100 ug/ml Primocin, and 50 ug/ml Ascorbic Acid. Cells in suspension were collected and assayed at Days 10-13 or split for long-term culture.
as §1

In another data set the test system is AhR. The data set can be described thus: Lentiviral AhR reporter (MMTV-DRE dsRed / luciferase) in MEPs. The note with it: day 30 MEPs, 0.2 μM FICZ plus 5 μM CH223191.
Data set [5] deals with iPSC-derived MEPs. The data set can be described thus: Immunophenotyping of MEP lineage specification (CD235, CD71, CD41 FACS). The note with it: day 30 MEPs, basal cytokine conditions, versus vehicle. Here is the method:
as §2
In our previous studies in which we noted exponential expansion of iPSC-derived MEPs (FIG. 3), the AhR-mediated effect that we noted allowed us to culture cells for extended periods of time (>120 days). […]

Like-named read-outs stand apart in the source and are kept apart here.

As to `O=c1cc(-c2ccccc2)oc2ccc3ccccc3c12` [(3-NF, P-naphtoflavone], the “responsiveness to AhR agonist (CYP1B1 RT-PCR)” value in data set [1] is “responsive”; in data set [2] (MEP, normalized to GAPDH), “responsive”.
As for `Cc1ccccc1N=Nc1ccc(NC(=O)c2ccnn2C)c(C)c1` [CH223191, 2-methyl-2H-pyrazole-3-carboxylic acid (2-methyl-4-o-tolylazo-phenyl)-amide], the “percentage of PI+ cells, vehicle versus FICZ-treated cultures” value in the data set with iPSC-derived MEPs [3] is “approximately the same”. In addition, the figures for the “expansion of MEPs” value in the data set on iPSC-derived MEPs [4] (2.5 μM CH223191 pre-treatment before addition of FICZ) and in the data set with iPSC-derived MEPs [4] (5 μM CH223191 pre-treatment + FICZ) were “still capable of expansion” and “No significant expansion”, respectively. In addition, the “CYP1B1 induction by FICZ” value in data set [2] (MEPs pretreated with CH223191 at D6, FICZ at D7) is recorded as “block”. Further, the DsRed reporter expression entry with AhR is “significant decrease”. Further, the “CD41+ megakaryocyte-lineage cells” value in the data set with iPSC-derived MEPs [5] was “small but defined population”.
For `Clc1cc2c(cc1Cl)Oc1cc(Cl)c(Cl)cc1O2` [TCDD, 2,3,7,8-tetrachlorodibenzo(p)dioxin], the “responsiveness to AhR agonist (CYP1B1 RT-PCR)” value in data set [1] (iPSC treated for 4 days, normalized to GAPDH) is “responsive”.
